Measured values taken from PubChem BioAssay AID1549 (Sanford-Burnham Center for Chemical Genomics, 2009).
Activity calls are given as the source filed them. No rule for the calls is given here.

Molecular target: Influenza A virus M2 proton channel (A/TW/4845/1999 H1N1)
Experiment: M2 proton channel binding, NMR based, influenza A virus H1N1 strain (AID 1549)
Settings: NMR binding screen, M2 protein

Row | SMILES | Kd
1 | OCc1cc2ccccc2o1 | > 4 mM (inactive)
2 | Cc1[nH]c2ccccc2c1C=Nn1cncn1 | > 4 mM (inactive)
3 | Cc1cc(N)n(-c2ccccc2)n1 | > 4 mM (inactive)
4 | O=c1[nH]nnc2sc3c(c12)CCCC3 | > 4 mM (inactive)
5 | Cc1ccc(Nc2nnns2)cc1C | > 4 mM (inactive)
6 | CC(=O)O[C@@H]1CC[C@@]2(C)C(CC[C@]3(C)C2CC=C2C4CC(C)(C)CC[C@]4(C(=O)O)CC[C@]23C)C1(C)C (stereo partly drawn) | > 4 mM (inactive)
7 | NCCC(=O)N[C@@H](Cc1cnc[nH]1)C(=O)O | > 4 mM (inactive)
8 | O=C1C[C@@H](c2ccccc2)Oc2cc(O)cc(O)c21 | > 4 mM (inactive)
9 | CN1CCN(C(=S)NC(=O)c2ccn(C)n2)CC1 | > 4 mM (inactive)
10 | O=C1CSC(=Nc2ccccc2)N1 | > 4 mM (inactive)
11 | CC(=O)OCC[C@H](C)CCC=C(C)C | > 4 mM (inactive)
12 | CN1C2CC[C@@H]1CC(OC(=O)[C@H](CO)c1ccccc1)C2 (stereo partly drawn) | > 4 mM (inactive)
13 | O=C1NCCCC1C(=O)N/N=C/c1ccccc1 (stereo not drawn) | > 4 mM (inactive)
14 | O=C(O)CCCCCCCCCCCCC1C=CCC1 (stereo not drawn) | > 4 mM (inactive)
15 | c1ccc(-c2noc(-c3ccc4c(c3)OCO4)n2)nc1 | > 4 mM (inactive)
16 | COc1ccc(/C=N/n2cn[nH]c2=S)cc1 | > 4 mM (inactive)
17 | CCCCN1C(=O)N(C)C2NC(=O)NC21 (stereo not drawn) | > 4 mM (inactive)
18 | NC(=O)CSc1nnc2ccc3ccccc3n12 | > 4 mM (inactive)
19 | O=C(Nc1ccon1)c1ccc2c(c1)OCO2 | > 4 mM (inactive)
20 | CC(=O)Nc1sc(C)c(C)c1C(N)=O | > 4 mM (inactive)
21 | O=C1CCC(C(=O)NCc2cccnc2)N1 (stereo not drawn) | > 4 mM (inactive)
22 | O=C(NCCO)c1cc2ccccc2cc1O | > 4 mM (inactive)
23 | CC(C)=CCC/C(C)=C/CC/C(C)=C/CC/C(C)=C/CC/C(C)=C/CC/C(C)=C/CC/C(C)=C/CC/C(C)=C/CC/C(C)=C/CO | > 4 mM (inactive)
24 | O=C(O)C1(O)C[C@@H](O)C(O)[C@H](O)C1 (stereo partly drawn) | > 4 mM (inactive)

Row | SMILES | Kd
25 | O=C(O)c1ccc(-c2cccs2)cc1 | > 4 mM (inactive)
26 | NC(Cn1ccc(=O)c(O)c1)C(=O)O (stereo not drawn) | > 4 mM (inactive)
27 | Cc1ccc2c(c1)CCCN2C(=O)c1c(C)noc1C | > 4 mM (inactive)
28 | O=C(CSc1cccc2cccnc12)N1CCCC1 | > 4 mM (inactive)
29 | NCc1ccc(CN2CCOCC2)cc1 | > 4 mM (inactive)
30 | O=C(c1ccc(N2CCNCC2)cc1)c1cccnc1 | > 4 mM (inactive)
31 | COc1ccc2ccc(=O)oc2c1CC=C(C)C | > 4 mM (inactive)
32 | NCc1ccc(-n2cccn2)cc1 | > 4 mM (inactive)
33 | Cc1ccc(C)n1NC(=O)c1ccco1 | > 4 mM (inactive)
34 | COc1ccccc1NC(=O)C1CCCCC1 | > 4 mM (inactive)
35 | Cc1onc(-c2ccccc2)c1C(=O)O | > 4 mM (inactive)
36 | CS(=O)(=O)N1CCN(C(=O)Cc2cccs2)CC1 | > 4 mM (inactive)
37 | COC(=O)C[C@H]1C2(C)CC34OC5(C)O[C@@]6([C@H](OC)C(OC(=O)C(C)C)[C@]7(C)C(/C(=C(/OC)C(C)C)C(=O)O[C@H]7c7ccoc7)[C@@]6(O5)[C@H](OC)[C@@]3(OC)C2OC(C)=O)[C@]14C (stereo partly drawn) | > 4 mM (inactive)
38 | O=C(/C=C(\O)c1ccccc1)c1ccccc1O | > 4 mM (inactive)
39 | COc1cc2cc3c4cc(OC)c(OC)cc4cc[n+]3c(C)c2cc1OC | > 4 mM (inactive)
40 | N#CCCn1ccnc1-c1ccccc1 | > 4 mM (inactive)
41 | Cc1occc1C(=O)Nc1ccc2c(c1)OCO2 | > 4 mM (inactive)
42 | NC(=O)C1CCN(C2CC(=O)NC2=O)CC1 (stereo not drawn) | > 4 mM (inactive)
43 | O=C1NCC(=O)N2CCc3ccccc3C12 (stereo not drawn) | > 4 mM (inactive)
44 | NC(=O)c1ccccc1N=Cc1ccco1 | > 4 mM (inactive)
45 | CNC(=O)CC1Sc2ccccc2NC1=O (stereo not drawn) | > 4 mM (inactive)
46 | O=C(NCN1CCOCC1)c1cnccn1 | > 4 mM (inactive)
47 | CC(=O)Nc1ccc(C(=O)NC2=NCCS2)cc1 | > 4 mM (inactive)
48 | S=C(c1ccc(N2CCOCC2)cc1)N1CCOCC1 | > 4 mM (inactive)

Row | SMILES | Kd
49 | COc1c(O)cc(O)cc1O | > 4 mM (inactive)
50 | c1ccc(-n2ncc3c(NCc4ccco4)ncnc32)cc1 | > 4 mM (inactive)
51 | Nc1nc(-c2ccccc2)ns1 | > 4 mM (inactive)
52 | N#Cc1nc(-c2ccccc2Cl)oc1N1CCOCC1 | > 4 mM (inactive)
53 | OCCOc1ccc(C2=NCCO2)cc1 | > 4 mM (inactive)
54 | CCNC(=O)CC1Nc2ccccc2NC1=O (stereo not drawn) | > 4 mM (inactive)
55 | Cc1ncc(C(=O)O)c(-c2ccccc2)n1 | > 4 mM (inactive)
56 | COc1cc(S(=O)(=O)N(C)C)ccc1F | > 4 mM (inactive)
57 | O=C1CSC2=NCCCN12 | > 4 mM (inactive)
58 | O=C(NN=C1CCCC1)c1ccncc1 | > 4 mM (inactive)
59 | Cc1cc(C(=O)N2CCC3(CC2)OCCO3)cs1 | > 4 mM (inactive)
60 | Cc1nc2ccc(F)cc2cc1C(=O)NCc1ccco1 | > 4 mM (inactive)
61 | c1ccn(Cc2ccncc2)c1 | > 4 mM (inactive)
62 | Cc1ccc(-c2nc(N)n(C(=O)c3cccnc3)n2)cc1 | > 4 mM (inactive)
63 | OCc1snnc1-c1ccccc1 | > 4 mM (inactive)
64 | O=C(c1ccc(F)cc1)N1CCOCC1 | > 4 mM (inactive)
65 | Cc1ccccc1OCC(=O)O | > 4 mM (inactive)
66 | CCOC(=O)c1c[nH]c2c(F)cccc2c1=O | > 4 mM (inactive)
67 | CC1(C)C(=O)[C@@H]2O[C@@H]2[C@@]2(C)C1C[C@@H](O)[C@]1(C)C2CC[C@@]2(C)[C@H](c3ccoc3)OC(=O)C3OC321 (stereo partly drawn) | > 4 mM (inactive)
68 | Cc1cc(=O)[nH]c(N2CCCCC2)n1 | > 4 mM (inactive)
69 | OCC1CN(Cc2ccccc2)CCO1 (stereo not drawn) | > 4 mM (inactive)
70 | C[C@H]1[C@H](C)CC[C@]2(CO)CC[C@]3(C)C(=CCC4[C@@]5(C)CC[C@H](O)C(C)(C)C5CC[C@]43C)[C@H]12 (stereo partly drawn) | > 4 mM (inactive)
71 | O=C(CSc1ccnc(=O)[nH]1)NCc1ccco1 | > 4 mM (inactive)
72 | O=c1ccc(=O)n(CN2CCc3ccccc3C2)[nH]1 | > 4 mM (inactive)

Row | SMILES | Kd
73 | c1ccc(C2NCCc3[nH]cnc32)cc1 (stereo not drawn) | > 4 mM (inactive)
74 | COC(=O)[C@@H]1OC(=O)C2OC23[C@@]1(C)CCC1[C@@]2(C)CCC(=O)C(C)(C)C2C[C@@H](OC(C)=O)[C@]13C (stereo partly drawn) | > 4 mM (inactive)
75 | COC(=O)c1sccc1S(=O)(=O)N1CCCC1 | > 4 mM (inactive)
76 | O=C(O)Cn1nnn(-c2ccccc2)c1=S | > 4 mM (inactive)
77 | COc1cc2c(cc1OC)Cc1cc(OC)c(OC)cc1Cc1cc(OC)c(OC)cc1C2 | > 4 mM (inactive)
78 | Cc1oc2nc3c(c(=O)[nH]c(=O)n3C)n2c1C | > 4 mM (inactive)
79 | O=C(Nc1ncccn1)c1cccc(F)c1 | > 4 mM (inactive)
80 | CC1=CC(=O)C2C(C)(C)CCC[C@]2(C)[C@@]1(O)CCc1ccoc1 (stereo partly drawn) | > 4 mM (inactive)
81 | Nc1nnc(C(F)(F)F)s1 | > 4 mM (inactive)
82 | CCC(=O)Oc1ccc(N2C(=O)CCC2=O)cc1 | > 4 mM (inactive)
83 | O=C(CSc1ncn[nH]1)c1ccc2c(c1)OCO2 | > 4 mM (inactive)
84 | CC(C)=CCCC1(C)C=Cc2c(O)c3c(c(CC=C(C)C)c2O1)OC12C(=CC4CC1C(C)(C)OC2(C/C=C(/C)C(=O)O)C4=O)C3=O (stereo not drawn) | > 4 mM (inactive)
85 | CC1(C)C2CC(=O)[C@]3(C)C(CC[C@@]4(C)[C@H](c5ccoc5)OC(=O)C5OC543)[C@@]2(C)[C@@H](O)C[C@H]1O (stereo partly drawn) | > 4 mM (inactive)
86 | O=C(O)c1ccc2snnc2c1 | > 4 mM (inactive)
87 | Cn1ncc(N2CCOCC2)c(Cl)c1=O | > 4 mM (inactive)
88 | O=C1COc2ccc(C(=O)c3ccccc3)cc2CN1 | > 4 mM (inactive)
89 | CCOc1cc(S(=O)(=O)N2CCOCC2)ccc1F | > 4 mM (inactive)
90 | Cc1nn(CC(=O)Nc2ccccc2)c(=O)c2ccccc12 | > 4 mM (inactive)
91 | Cc1cc(=O)n2[nH]cnc2n1 | > 4 mM (inactive)
92 | NC(=O)C1(c2ccccc2)CCOCC1 | > 4 mM (inactive)
93 | CN1CCC2(CC1)CC1CC3C=CC1(CN2)O3 (stereo not drawn) | > 4 mM (inactive)
94 | Nc1c(N2CCCC2)cnn(-c2ccccc2)c1=O | > 4 mM (inactive)
95 | Cc1ccc(C(=O)N2CCOCC2)cc1Cl | > 4 mM (inactive)
96 | O=c1c2ccccc2oc2ccccc12 | > 4 mM (inactive)

Row | SMILES | Kd
97 | Cc1cc(N2C(=O)CCC2=O)n(-c2ccccc2)n1 | > 4 mM (inactive)
98 | Cn1c(=O)c2[nH]cnc2n(-c2ccccc2)c1=O | > 4 mM (inactive)
99 | NCc1cccc2nsnc12 | > 4 mM (inactive)
100 | Cc1c(C)[n+](=O)c(-c2cccs2)c(C)n1[O-] | > 4 mM (inactive)
101 | O=C(O)C1COc2ccccc2O1 (stereo not drawn) | > 4 mM (inactive)
102 | COc1ccc(-c2nc(C)sc2CC(=O)O)cc1 | > 4 mM (inactive)
103 | C=CCNC(=O)c1ccc(Cl)cc1Cl | > 4 mM (inactive)
104 | Cc1ccc(C(=O)n2cnnc2N)cc1C | > 4 mM (inactive)
105 | NC(=O)c1ccc(C(N)=O)cc1 | > 4 mM (inactive)
106 | NC(=O)CCn1ncc2ccccc21 | > 4 mM (inactive)
107 | CC[C@H](CCC(C)[C@H]1CCC2C3CCC4C[C@@H](O)CC[C@]4(C)C3CC[C@@]21C)C(C)C (stereo partly drawn) | > 4 mM (inactive)
108 | NC(=O)C(=O)NCc1ccc(Cl)cc1 | > 4 mM (inactive)
109 | CCSc1n[nH]c(=O)[nH]c1=O | > 4 mM (inactive)
110 | O=S1(=O)CCC(NC(=S)Nc2ccccn2)C1 (stereo not drawn) | > 4 mM (inactive)
111 | COc1cc2ccc(=O)oc2c(OC)c1OC | > 4 mM (inactive)
112 | O=C(O)c1c[nH]c2ccccc12 | > 4 mM (inactive)
113 | COc1ccccc1Nc1nncc(=O)[nH]1 | > 4 mM (inactive)
114 | Nc1c(C(=O)O)sc2ncccc12 | > 4 mM (inactive)
115 | Nc1c(Nc2ccccc2)c2ccccc2oc1=O | > 4 mM (inactive)
116 | Cc1cc(C(=O)NN2CCOCC2)c(C)o1 | > 4 mM (inactive)
117 | CN(C)C(=O)CCNS(=O)(=O)c1ccccc1 | > 4 mM (inactive)
118 | CC(=O)OCC(OC(C)=O)C(OC(C)=O)C(OC(C)=O)C(OC(C)=O)C(COC(C)=O)OC(C)=O (stereo not drawn) | > 4 mM (inactive)
